# Test system: MV-4-11 cells
# Assay: Gene expression microarray analysis (Affymetrix PrimeView) and GSEA
# Format: cell-based, human
# Parameters: RFU PODN (11730768_x_at) / Fold change /veh PODN (11730768_x_at) / RFU LINC00158 (11744669_a_at) / Fold change /veh LINC00158 (11744669_a_at) / RFU DUSP10 (11751237_a_at) / Fold change /veh DUSP10 (11751237_a_at) / RFU ID3 (11757404_x_at) / Fold change /veh ID3 (11757404_x_at) / RFU PLEKHG5 (11737974_s_at) / Fold change /veh PLEKHG5 (11737974_s_at) / RFU LRRC4B (11730491_at) / Fold change /veh LRRC4B (11730491_at) / RFU GIMAP4 (11747438_a_at) / Fold change /veh GIMAP4 (11747438_a_at) / RFU KRT8 (11758183_x_at) / Fold change /veh KRT8 (11758183_x_at) / RFU CNN1 (11734310_a_at) / Fold change /veh CNN1 (11734310_a_at) / RFU VPS37D (11726825_at) / Fold change /veh VPS37D (11726825_at) / RFU C10orf10 (11716522_x_at) / Fold change /veh C10orf10 (11716522_x_at) / RFU KIR2DL2 /// KIR2DL4 /// KIR2DL5A /// KIR2DL5B /// KIR2DS1 /// KIR2DS2 /// KIR2DS3 /// KIR2DS4 /// KIR3DL3 /// KIR3DL3 /// KIR3DS1 (11738374_at) / Fold change /veh KIR2DL2 /// KIR2DL4 /// KIR2DL5A /// KIR2DL5B /// KIR2DS1 /// KIR2DS2 /// KIR2DS3 /// KIR2DS4 /// KIR3DL3 /// KIR3DL3 /// KIR3DS1 (11738374_at) / RFU C1QL1 (11718748_at) / Fold change /veh C1QL1 (11718748_at) / RFU TMPRSS4 (11747572_a_at) / Fold change /veh TMPRSS4 (11747572_a_at) / RFU HAMP (11756126_x_at) / Fold change /veh HAMP (11756126_x_at) / RFU RNFT2 (11725882_a_at) / Fold change /veh RNFT2 (11725882_a_at) / RFU NR4A2 (11747474_a_at) / Fold change /veh NR4A2 (11747474_a_at) / RFU ABCC12 (11746883_a_at) / Fold change /veh ABCC12 (11746883_a_at) / RFU TMEM136 (11760407_x_at) / Fold change /veh TMEM136 (11760407_x_at) / RFU CLDN22 /// WWC2 (11732394_at) / Fold change /veh CLDN22 /// WWC2 (11732394_at) / RFU HLA-DPB1 (11760878_x_at) / Fold change /veh HLA-DPB1 (11760878_x_at) / RFU SPINT1 (11716480_a_at) / Fold change /veh SPINT1 (11716480_a_at) / RFU GAP43 (11754022_s_at) / Fold change /veh GAP43 (11754022_s_at) / RFU A4GNT (11735810_at) / Fold change /veh A4GNT (11735810_at) / RFU PRB3 (11715151_x_at) / Fold change /veh PRB3 (11715151_x_at) / RFU TUBB4B (11761932_at) / Fold change /veh TUBB4B (11761932_at) / RFU CAPN14 (11732068_a_at) / Fold change /veh CAPN14 (11732068_a_at) / RFU TMCC2 (11721928_a_at) / Fold change /veh TMCC2 (11721928_a_at) / RFU IRGQ (11745062_a_at) / Fold change /veh IRGQ (11745062_a_at) / RFU FAM174B (11720279_a_at) / Fold change /veh FAM174B (11720279_a_at) / RFU TMPRSS4 (11748680_a_at) / Fold change /veh TMPRSS4 (11748680_a_at) / RFU FAM212B (11763350_a_at) / Fold change /veh FAM212B (11763350_a_at) / RFU PLEKHG5 (11743358_a_at) / Fold change /veh PLEKHG5 (11743358_a_at) / RFU ZSCAN30 (11745921_a_at) / Fold change /veh ZSCAN30 (11745921_a_at) / RFU CMKLR1 (11741424_a_at) / Fold change /veh CMKLR1 (11741424_a_at) / RFU LOC101060620 /// MAPK8IP1 (11723275_at) / Fold change /veh LOC101060620 /// MAPK8IP1 (11723275_at) / RFU SPTSSB (11747773_x_at) / Fold change /veh SPTSSB (11747773_x_at) / RFU PRSS12 (11739890_at) / Fold change /veh PRSS12 (11739890_at) / RFU BIN1 (11741810_x_at) / Fold change /veh BIN1 (11741810_x_at) / RFU WNT11 (11732464_a_at) / Fold change /veh WNT11 (11732464_a_at) / RFU C10orf10 (11716521_a_at) / Fold change /veh C10orf10 (11716521_a_at) / RFU C5orf56 (11738089_at) / Fold change /veh C5orf56 (11738089_at) / RFU CYB561 (11721691_x_at) / Fold change /veh CYB561 (11721691_x_at) / RFU ANKRD19P (11752326_a_at) / Fold change /veh ANKRD19P (11752326_a_at) / RFU OR2T12 /// OR2T33 /// OR2T8 (11738714_s_at) / Fold change /veh OR2T12 /// OR2T33 /// OR2T8 (11738714_s_at) / RFU VCAN (11748164_a_at) / Fold change /veh VCAN (11748164_a_at) / RFU JSRP1 (11732532_at) / Fold change /veh JSRP1 (11732532_at) / RFU KRTAP10-11 (11738290_x_at) / Fold change /veh KRTAP10-11 (11738290_x_at) / RFU MYO3A (11730013_a_at) / Fold change /veh MYO3A (11730013_a_at) / RFU EBF3 (11725865_a_at) / Fold change /veh EBF3 (11725865_a_at) / RFU CAMK2N1 (11719241_x_at) / Fold change /veh CAMK2N1 (11719241_x_at) / RFU C5orf56 (11738088_a_at) / Fold change /veh C5orf56 (11738088_a_at) / RFU OLFML3 (11715873_a_at) / Fold change /veh OLFML3 (11715873_a_at) / RFU LOC100653217 /// NTM (11731650_a_at) / Fold change /veh LOC100653217 /// NTM (11731650_a_at) / RFU MAPK11 (11762145_a_at) / Fold change /veh MAPK11 (11762145_a_at) / RFU FIZ1 (11724087_x_at) / Fold change /veh FIZ1 (11724087_x_at) / RFU OASL (11726364_x_at) / Fold change /veh OASL (11726364_x_at) / RFU SOX15 (11748057_x_at) / Fold change /veh SOX15 (11748057_x_at) / RFU CD79A (11719716_a_at) / Fold change /veh CD79A (11719716_a_at) / RFU HIST1H1D (11736915_at) / Fold change /veh HIST1H1D (11736915_at) / RFU CASKIN2 (11723855_a_at) / Fold change /veh CASKIN2 (11723855_a_at) / RFU LOC730098 (11760151_x_at) / Fold change /veh LOC730098 (11760151_x_at) / RFU OR4N2 (11742367_at) / Fold change /veh OR4N2 (11742367_at) / RFU PRRT2 (11749266_a_at) / Fold change /veh PRRT2 (11749266_a_at) / RFU SNX32 (11753110_a_at) / Fold change /veh SNX32 (11753110_a_at) / RFU CDHR5 (11726645_a_at) / Fold change /veh CDHR5 (11726645_a_at) / RFU RCAN1 (11760418_a_at) / Fold change /veh RCAN1 (11760418_a_at) / RFU FAM167A (11723789_a_at) / Fold change /veh FAM167A (11723789_a_at) / RFU FAM26E (11764081_at) / Fold change /veh FAM26E (11764081_at) / RFU ISYNA1 (11749810_s_at) / Fold change /veh ISYNA1 (11749810_s_at) / RFU ACY1 (11761880_at) / Fold change /veh ACY1 (11761880_at) / RFU 11764098_at / Fold change /veh 11764098_at / RFU SAMD14 (11745864_x_at) / Fold change /veh SAMD14 (11745864_x_at) / RFU NPB (11741838_a_at) / Fold change /veh NPB (11741838_a_at) / RFU TMPRSS6 (11731388_a_at) / Fold change /veh TMPRSS6 (11731388_a_at) / RFU KRTAP10-2 (11738614_at) / Fold change /veh KRTAP10-2 (11738614_at) / RFU ARHGAP8 /// PRR5-ARHGAP8 (11727945_x_at) / Fold change /veh ARHGAP8 /// PRR5-ARHGAP8 (11727945_x_at) / RFU KRTAP5-7 /// NADSYN1 (11734609_at) / Fold change /veh KRTAP5-7 /// NADSYN1 (11734609_at) / RFU RASL12 (11751679_a_at) / Fold change /veh RASL12 (11751679_a_at) / RFU CDKN2B (11736163_a_at) / Fold change /veh CDKN2B (11736163_a_at) / RFU PRF1 (11729649_at) / Fold change /veh PRF1 (11729649_at) / RFU, ZNF638 /// ZNF638-IT1 / Fold change vs veh, ZNF638 /// ZNF638-IT1 / RFU, PANK3 / Fold change vs veh, PANK3 / RFU, SH3YL1 / Fold change vs veh, SH3YL1 / RFU, ZEB2 / Fold change vs veh, ZEB2 / RFU, NRIP1 / Fold change vs veh, NRIP1 / RFU, PTTG1IP / Fold change vs veh, PTTG1IP / RFU, CAPN2 / Fold change vs veh, CAPN2 / RFU, MED14 / Fold change vs veh, MED14 / RFU, SNORA58 / Fold change vs veh, SNORA58 / RFU, C1orf63 / Fold change vs veh, C1orf63 / RFU, LRRFIP1 / Fold change vs veh, LRRFIP1 / RFU, NDUFAF7 / Fold change vs veh, NDUFAF7 / RFU, SLC12A2 / Fold change vs veh, SLC12A2 / RFU, IBTK / Fold change vs veh, IBTK / RFU, ESF1 / Fold change vs veh, ESF1 / Fold change vs veh, TMEM50B / RFU, TAOK1 / Fold change vs veh, TAOK1 / RFU, ACBD3 / Fold change vs veh, ACBD3 / RFU, TMA16 / Fold change vs veh, TMA16 / RFU, RWDD3 / Fold change vs veh, RWDD3 / RFU, BCAT1 / Fold change vs veh, BCAT1 / RFU, EDEM3 / Fold change vs veh, EDEM3 / RFU, TMEM33 / Fold change vs veh, TMEM33 / RFU, WDR75 / Fold change vs veh, WDR75 / RFU, AHCTF1 / Fold change vs veh, AHCTF1 / RFU, TFRC / Fold change vs veh, TFRC / RFU, ZDHHC17 / Fold change vs veh, ZDHHC17 / RFU, NOM1 / Fold change vs veh, NOM1 / RFU, ARL8B / Fold change vs veh, ARL8B / RFU, ZBTB11 / Fold change vs veh, ZBTB11 / RFU, TAMM41 / Fold change vs veh, TAMM41 / RFU, KIAA1704 /// LOC100996395 / Fold change vs veh, KIAA1704 /// LOC100996395 / RFU, ING1 / Fold change vs veh, ING1 / RFU, TRMT61B / Fold change vs veh, TRMT61B / RFU, FUBP3 / Fold change vs veh, FUBP3 / RFU, TP53 / Fold change vs veh, TP53 / RFU, TNKS2 / Fold change vs veh, TNKS2 / RFU, ZFP14 / Fold change vs veh, ZFP14 / RFU, ACTR2 / Fold change vs veh, ACTR2 / RFU, PPP3R1 / Fold change vs veh, PPP3R1 / RFU, PIK3R1 / Fold change vs veh, PIK3R1 / RFU, HNRNPA1 / Fold change vs veh, HNRNPA1 / RFU, RNF170 / Fold change vs veh, RNF170 / RFU, ZNF28 / Fold change vs veh, ZNF28 / RFU, RNGTT / Fold change vs veh, RNGTT / RFU, OGT / Fold change vs veh, OGT / RFU, BRD1 / Fold change vs veh, BRD1 / RFU, MARS / Fold change vs veh, MARS / RFU, ZNF655 / Fold change vs veh, ZNF655 / RFU, FAHD1 / Fold change vs veh, FAHD1 / RFU, BDP1 / Fold change vs veh, BDP1 / RFU, LRRCC1 / Fold change vs veh, LRRCC1 / RFU, ARID1A / Fold change vs veh, ARID1A / RFU, ZNF146 / Fold change vs veh, ZNF146 / RFU, ZNF330 / Fold change vs veh, ZNF330 / RFU, GPN3 / Fold change vs veh, GPN3 / RFU, C9orf123 / Fold change vs veh, C9orf123 / RFU, N4BP2L2 / Fold change vs veh, N4BP2L2 / RFU, ARFIP1 / Fold change vs veh, ARFIP1 / RFU, FAM179B / Fold change vs veh, FAM179B / RFU, BCL10 / Fold change vs veh, BCL10 / RFU, UHRF1BP1L / Fold change vs veh, UHRF1BP1L / RFU, BET1 / Fold change vs veh, BET1 / RFU, CNOT2 / Fold change vs veh, CNOT2 / RFU, ZNF268 / Fold change vs veh, ZNF268 / Fold change vs veh, ZNF507 / RFU, DGCR2 / Fold change vs veh, DGCR2 / RFU, WDSUB1 / Fold change vs veh, WDSUB1 / Fold change vs veh, HSP90B1 /// MIR3652 / RFU, ADSS / Fold change vs veh, ADSS / RFU, GK / Fold change vs veh, GK / RFU, ZNF148 / Fold change vs veh, ZNF148 / RFU, TAF9 / Fold change vs veh, TAF9 / RFU, SLC1A5 / Fold change vs veh, SLC1A5 / RFU, SLMO2 / Fold change vs veh, SLMO2 / RFU, ABCC4 / Fold change vs veh, ABCC4 / RFU, LOC101060439 /// RAP1B / Fold change vs veh, LOC101060439 /// RAP1B / RFU, RFX7 / Fold change vs veh, RFX7 / RFU, GTPBP10 / Fold change vs veh, GTPBP10 / RFU, CNEP1R1 / Fold change vs veh, CNEP1R1 / RFU, BIVM-ERCC5 /// ERCC5 / Fold change vs veh, BIVM-ERCC5 /// ERCC5 / RFU, ILF3 / Fold change vs veh, ILF3 / RFU 11762660_at / Fold change /veh 11762660_at / RFU VCAN (11757783_s_at) / Fold change /veh VCAN (11757783_s_at) / RFU DDX43 (11728927_at) / Fold change /veh DDX43 (11728927_at) / RFU KRT8 (11758188_x_at) / Fold change /veh KRT8 (11758188_x_at) / RFU NKD1 (11759106_at) / Fold change /veh NKD1 (11759106_at) / RFU SRD5A1 (11742802_a_at) / Fold change /veh SRD5A1 (11742802_a_at) / RFU TPSAB1 /// TPSB2 (11721975_s_at) / Fold change /veh TPSAB1 /// TPSB2 (11721975_s_at) / RFU GSTM3 (11746129_a_at) / Fold change /veh GSTM3 (11746129_a_at) / RFU IL23R (11737362_x_at) / Fold change /veh IL23R (11737362_x_at) / RFU TMEM51 (11727254_a_at) / Fold change /veh TMEM51 (11727254_a_at) / RFU PIWIL2 (11732686_x_at) / Fold change /veh PIWIL2 (11732686_x_at) / RFU ORM1 (11744905_x_at) / Fold change /veh ORM1 (11744905_x_at) / RFU CCDC152 (11743942_at) / Fold change /veh CCDC152 (11743942_at) / RFU ECM1 (11717891_a_at) / Fold change /veh ECM1 (11717891_a_at) / RFU IL23R (11748794_a_at) / Fold change /veh IL23R (11748794_a_at) / RFU TNFAIP8L3 (11732012_x_at) / Fold change /veh TNFAIP8L3 (11732012_x_at) / RFU MBOAT4 (11741988_at) / Fold change /veh MBOAT4 (11741988_at) / RFU 11764193_at / Fold change /veh 11764193_at / RFU TMEM53 (11763286_at) / Fold change /veh TMEM53 (11763286_at) / RFU MAGEB2 (11727129_at) / Fold change /veh MAGEB2 (11727129_at) / RFU TMEM200A (11744735_a_at) / Fold change /veh TMEM200A (11744735_a_at) / RFU CCDC152 (11751479_a_at) / Fold change /veh CCDC152 (11751479_a_at) / RFU FAM211A (11726209_a_at) / Fold change /veh FAM211A (11726209_a_at) / RFU RGS16 (11746705_a_at) / Fold change /veh RGS16 (11746705_a_at) / RFU VCAN (11755009_s_at) / Fold change /veh VCAN (11755009_s_at) / RFU RHOB (11743442_s_at) / Fold change /veh RHOB (11743442_s_at) / RFU RGS16 (11720943_a_at) / Fold change /veh RGS16 (11720943_a_at) / RFU RGS16 (11720944_at) / Fold change /veh RGS16 (11720944_at) / RFU, VPS4B / Fold change vs veh, VPS4B / RFU, CREB1 / Fold change vs veh, CREB1 / RFU, DNAJC13 / Fold change vs veh, DNAJC13 / RFU, GNAQ / Fold change vs veh, GNAQ / RFU, CDK5R1 / Fold change vs veh, CDK5R1 / RFU, ZRANB3 / Fold change vs veh, ZRANB3 / RFU, CUL4A / Fold change vs veh, CUL4A / RFU, CCNY / Fold change vs veh, CCNY / RFU, UFL1 / Fold change vs veh, UFL1 / RFU, COG3 / Fold change vs veh, COG3 / RFU, DIAPH2 / Fold change vs veh, DIAPH2 / RFU, SKA2 / Fold change vs veh, SKA2 / RFU, AFF3 / Fold change vs veh, AFF3 / RFU, LMF1 / Fold change vs veh, LMF1 / RFU, IPO11 / Fold change vs veh, IPO11 / RFU, DFFB / Fold change vs veh, DFFB / RFU, FOXP1 / Fold change vs veh, FOXP1 / RFU, CARD8 / Fold change vs veh, CARD8 / RFU, STRN3 / Fold change vs veh, STRN3 / RFU, ADK / Fold change vs veh, ADK / RFU, RASSF2 / Fold change vs veh, RASSF2 / RFU, WIPF1 / Fold change vs veh, WIPF1 / RFU, LARP1B / Fold change vs veh, LARP1B / RFU, RASA1 / Fold change vs veh, RASA1 / RFU, RB1 / Fold change vs veh, RB1 / RFU, PPFIA1 / Fold change vs veh, PPFIA1 / RFU, MAT2A / Fold change vs veh, MAT2A / RFU, CCT5 / Fold change vs veh, CCT5 / RFU, WDR92 / Fold change vs veh, WDR92 / RFU, CUX1 / Fold change vs veh, CUX1 / RFU, TTC7A / Fold change vs veh, TTC7A / RFU, TMEM135 / Fold change vs veh, TMEM135 / RFU, DEPTOR / Fold change vs veh, DEPTOR / RFU, CPM / Fold change vs veh, CPM / RFU, DNAJB6 / Fold change vs veh, DNAJB6 / RFU, CACNA2D3 / Fold change vs veh, CACNA2D3 / RFU, DTX4 / Fold change vs veh, DTX4 / RFU, TFCP2 / Fold change vs veh, TFCP2 / RFU, GMCL1 /// GMCL1P1 / Fold change vs veh, GMCL1 /// GMCL1P1 / RFU, AEBP2 / Fold change vs veh, AEBP2 / RFU, SNHG1 /// SNORD22 /// SNORD25 /// SNORD26 /// SNORD27 /// SNORD28 /// SNORD29 /// SNORD31 / Fold change vs veh, SNHG1 /// SNORD22 /// SNORD25 /// SNORD26 /// SNORD27 /// SNORD28 /// SNORD29 /// SNORD31 / Fold change (Aza/veh), C12orf56 (ProbeSet 11735607_a_at) / Fold change (ACY-1035/veh), C12orf56 (ProbeSet 11735607_a_at) / Fold change (Aza/veh), FGFR1OP (ProbeSet 11751329_s_at) / Fold change (ACY-1035/veh), FGFR1OP (ProbeSet 11751329_s_at) / Fold change (Aza/veh), VPS36 (ProbeSet 11739960_a_at) / Fold change (ACY-1035/veh), VPS36 (ProbeSet 11739960_a_at) / RFU SYPL1 (11715823_x_at) / Fold change /veh SYPL1 (11715823_x_at) / RFU IGFBP7 (11715501_s_at) / Fold change /veh IGFBP7 (11715501_s_at) / RFU REEP3 (11722064_at) / Fold change /veh REEP3 (11722064_at) / RFU IGLL1 (11728026_x_at) / Fold change /veh IGLL1 (11728026_x_at): dose or concentration left out as unconfirmed
# Details: MV-4-11 cells, 48 hours
structure (smiles),measurement,value
Nc1ncn([C@@H]2O[C@H](CO)[C@@H](O)[C@H]2O)c(=O)n1 [azacitidine],RFU OR4N2 (11742367_at),68.76 RFU

# — paper PMC5218480 (PLoS ONE, 2017)
